# Experimental data as given in patent US7919616B2, “Carbapenem compound” (priority 2005, dated 2011).
# Experiments:
# [1] = Stability test of compound (Ia) in crystalline state (purity by HPLC on storage); assay type: physicochemical; details: 20° C. and 40° C., after 6, 17, 21 and 31 days
# Procedure: Stability Test of Compound (Ia) in Crystalline State
# About 2 g of the compound (Ia) in a crystalline form which was obtained in the same way as Example 1 was placed in sample bottles, and the sample bottles were stored at room temperature (about 20° C.) and in a room maintained at a temperature of about 40° C. Taking the original purity as 100%, after every several number of days, the purity of the compound (Ia) was measured using high-performance liquid chromatography (HPLC). The HPLC measurement conditions are shown below.
# Solvent delivery system: LC-10A (manufactured by Shimadzu Corporation)
# UV, VIS detector: SPD-10A (manufactured by Shimadzu Corporation)
# Detection wavelength: 215 nm
# Column heater: Sugai U-620 (used at 40° C., Sugai Chemical Industry Co., Ltd.)
# Column: Inertsil® ODS-2 (4.6 mm diameter×250 mm length, GL Sciences, Inc.)
# [2] = disclosed in Patent Document 1; cited from earlier work
Compound,stability of the crystalline form [1],stability in the crystalline form [2]
"C=CCOC(=O)C1=C(OP(=O)(OCC(Cl)(Cl)Cl)OCC(Cl)(Cl)Cl)[C@H](C)[C@@H]2[C@@H]([C@@H](C)O)C(=O)N12 [compound (Ia), allyl-(1R,5R,6S)-2-[bis(2,2,2-trichloroethyl)phosphoryloxy]-6-[(R)-1-hydroxyethyl]-1-methyl-carbapenem-3-carboxylate]",very stable without a decrease in purity,
C[C@@H](O)[C@H]1C(=O)N2C(C(=O)OCc3ccc([N+](=O)[O-])cc3)=C(OP(=O)(Oc3ccccc3)Oc3ccccc3)[C@H](C)[C@H]12 [compound (Ib)],,excellent stability in the crystalline form
